Data: ChEMBL document CHEMBL4673302, “Efficient synthesis and antitumor evaluation of 4-aminomethyl-N-arylpyrazoles: Discovery of potent and selective agents for ovarian cancer” (Bioorg Med Chem, 2021)

System: 786-0
Test: Anticancer activity against human 786-0 cells assessed as cell growth inhibition measured after 48 hrs by sulforhodamine B assay
Type: functional
Conditions: Homo sapiens, 786-0, 48 h

Row | SMILES | GI50 [µM]
1 | CC(C)(C)NCc1c(C(=O)O)nn(-c2ccccc2)c1-c1ccc(F)cc1 | > 681
2 | CC(C)(C)NCc1c(C(=O)O)nn(-c2ccccc2)c1-c1ccc(Br)cc1 | > 585
3 | CC(C)(C)NCc1c(C(=O)O)nn(-c2ccc(Cl)cc2)c1-c1ccc(Cl)cc1 | > 599
4 | COc1ccc(-c2c(CNC(C)(C)C)c(C(=O)O)nn2-c2ccc(Cl)cc2)cc1 | > 605
5 | CCOC(=O)c1nn(-c2ccc(Cl)cc2)c(-c2ccc(F)cc2)c1CNC(C)(C)C | > 582
6 | CCOC(=O)c1nn(-c2ccccc2)c(-c2ccc(F)cc2)c1CNC(C)(C)C | > 632
7 | CCOC(=O)c1nn(-c2ccc(Cl)cc2)c(-c2ccc(C)cc2)c1CNC(C)(C)C | > 588

System: NCI-H460
Test: Anticancer activity against human NCI-H460 cells assessed as cell growth inhibition measured after 48 hrs by sulforhodamine B assay
Type: functional
Conditions: 48 h

Row | SMILES | GI50 [µM]
8 | CCOC(=O)c1nn(-c2ccccc2)c(-c2ccc(F)cc2)c1CNC(C)(C)C | 365

Same assay, conditions: Homo sapiens, NCI-H460, 48 h

Row | SMILES | GI50 [µM]
9 | CC(C)(C)NCc1c(C(=O)O)nn(-c2ccccc2)c1-c1ccc(F)cc1 | > 681
10 | CC(C)(C)NCc1c(C(=O)O)nn(-c2ccccc2)c1-c1ccc(Br)cc1 | > 585
11 | CC(C)(C)NCc1c(C(=O)O)nn(-c2ccc(Cl)cc2)c1-c1ccc(Cl)cc1 | > 599
12 | COc1ccc(-c2c(CNC(C)(C)C)c(C(=O)O)nn2-c2ccc(Cl)cc2)cc1 | > 605
13 | CCOC(=O)c1nn(-c2ccc(Cl)cc2)c(-c2ccc(F)cc2)c1CNC(C)(C)C | 344
14 | CCOC(=O)c1nn(-c2ccc(Cl)cc2)c(-c2ccc(C)cc2)c1CNC(C)(C)C | 277
15 | COc1cccc2c1C(=O)c1c(O)c3c(c(O)c1C2=O)C[C@@](O)(C(=O)CO)C[C@@H]3O[C@H]1C[C@H](N)[C@H](O)[C@H](C)O1 [DOXORUBICIN] | < 0.046

System: OVCAR-3
Test: Anticancer activity against human OVCAR-3 cells assessed as cell growth inhibition measured after 48 hrs by sulforhodamine B assay
Type: functional
Conditions: 48 h

Row | SMILES | GI50 [µM]
16 | CCOC(=O)c1nn(-c2ccc(Cl)cc2)c(-c2ccc(F)cc2)c1CNC(C)(C)C | 159
17 | CCOC(=O)c1nn(-c2ccccc2)c(-c2ccc(F)cc2)c1CNC(C)(C)C | 0.013
18 | CCOC(=O)c1nn(-c2ccc(Cl)cc2)c(-c2ccc(C)cc2)c1CNC(C)(C)C | 49.2

Same assay, conditions: Homo sapiens, OVCAR-3, 48 h

Row | SMILES | GI50 [µM]
19 | CC(C)(C)NCc1c(C(=O)O)nn(-c2ccccc2)c1-c1ccc(Br)cc1 | > 585
20 | CC(C)(C)NCc1c(C(=O)O)nn(-c2ccc(Cl)cc2)c1-c1ccc(Cl)cc1 | 84.9
21 | COc1ccc(-c2c(CNC(C)(C)C)c(C(=O)O)nn2-c2ccc(Cl)cc2)cc1 | 121
22 | COc1cccc2c1C(=O)c1c(O)c3c(c(O)c1C2=O)C[C@@](O)(C(=O)CO)C[C@@H]3O[C@H]1C[C@H](N)[C@H](O)[C@H](C)O1 [DOXORUBICIN] | 0.09

System: U-251
Test: Anticancer activity against human U-251 cells assessed as cell growth inhibition measured after 48 hrs by sulforhodamine B assay
Type: functional
Conditions: 48 h

Row | SMILES | GI50 [µM]
23 | CCOC(=O)c1nn(-c2ccc(Cl)cc2)c(-c2ccc(C)cc2)c1CNC(C)(C)C | 151

Same assay, conditions: Homo sapiens, U-251, 48 h

Row | SMILES | GI50 [µM]
24 | CC(C)(C)NCc1c(C(=O)O)nn(-c2ccccc2)c1-c1ccc(F)cc1 | > 681
25 | CC(C)(C)NCc1c(C(=O)O)nn(-c2ccccc2)c1-c1ccc(Br)cc1 | 126
26 | CC(C)(C)NCc1c(C(=O)O)nn(-c2ccc(Cl)cc2)c1-c1ccc(Cl)cc1 | 518
27 | COc1ccc(-c2c(CNC(C)(C)C)c(C(=O)O)nn2-c2ccc(Cl)cc2)cc1 | 498
28 | CCOC(=O)c1nn(-c2ccc(Cl)cc2)c(-c2ccc(F)cc2)c1CNC(C)(C)C | 519
29 | CCOC(=O)c1nn(-c2ccccc2)c(-c2ccc(F)cc2)c1CNC(C)(C)C | > 632
30 | COc1cccc2c1C(=O)c1c(O)c3c(c(O)c1C2=O)C[C@@](O)(C(=O)CO)C[C@@H]3O[C@H]1C[C@H](N)[C@H](O)[C@H](C)O1 [DOXORUBICIN] | < 0.046

System: HT-29
Test: Anticancer activity against human HT-29 cells assessed as cell growth inhibition measured after 48 hrs by sulforhodamine B assay
Type: functional
Conditions: 48 h

Row | SMILES | GI50 [µM]
31 | CCOC(=O)c1nn(-c2ccc(Cl)cc2)c(-c2ccc(F)cc2)c1CNC(C)(C)C | 87.1
32 | CCOC(=O)c1nn(-c2ccccc2)c(-c2ccc(F)cc2)c1CNC(C)(C)C | 65.4
33 | CCOC(=O)c1nn(-c2ccc(Cl)cc2)c(-c2ccc(C)cc2)c1CNC(C)(C)C | 106

Same assay, conditions: Homo sapiens, HT-29, 48 h

Row | SMILES | GI50 [µM]
34 | CC(C)(C)NCc1c(C(=O)O)nn(-c2ccccc2)c1-c1ccc(F)cc1 | > 681
35 | CC(C)(C)NCc1c(C(=O)O)nn(-c2ccccc2)c1-c1ccc(Br)cc1 | > 585
36 | CC(C)(C)NCc1c(C(=O)O)nn(-c2ccc(Cl)cc2)c1-c1ccc(Cl)cc1 | > 599
37 | COc1ccc(-c2c(CNC(C)(C)C)c(C(=O)O)nn2-c2ccc(Cl)cc2)cc1 | > 605
38 | COc1cccc2c1C(=O)c1c(O)c3c(c(O)c1C2=O)C[C@@](O)(C(=O)CO)C[C@@H]3O[C@H]1C[C@H](N)[C@H](O)[C@H](C)O1 [DOXORUBICIN] | 0.26

System: HaCaT
Test: (§1) Cytotoxicity against human HaCaT cells assessed as cell growth inhibition measured after 48 hrs by sulforhodamine B assay
Type: cell-based
Conditions: hacat, 48 h

Row | SMILES | GI50 [µM]
39 | CCOC(=O)c1nn(-c2ccc(Cl)cc2)c(-c2ccc(F)cc2)c1CNC(C)(C)C | 24.7
40 | CCOC(=O)c1nn(-c2ccccc2)c(-c2ccc(F)cc2)c1CNC(C)(C)C | 74.5
41 | CCOC(=O)c1nn(-c2ccc(Cl)cc2)c(-c2ccc(C)cc2)c1CNC(C)(C)C | 144

System: not listed separately
Test: as §1
Type: cell-based
Conditions: HaCaT cells

Row | SMILES | GI50 at 48 h [µM]
42 | CC(C)(C)NCc1c(C(=O)O)nn(-c2ccccc2)c1-c1ccc(F)cc1 | > 681
43 | CC(C)(C)NCc1c(C(=O)O)nn(-c2ccccc2)c1-c1ccc(Br)cc1 | 366
44 | CC(C)(C)NCc1c(C(=O)O)nn(-c2ccc(Cl)cc2)c1-c1ccc(Cl)cc1 | 87.5
45 | COc1ccc(-c2c(CNC(C)(C)C)c(C(=O)O)nn2-c2ccc(Cl)cc2)cc1 | 121
46 | COc1cccc2c1C(=O)c1c(O)c3c(c(O)c1C2=O)C[C@@](O)(C(=O)CO)C[C@@H]3O[C@H]1C[C@H](N)[C@H](O)[C@H](C)O1 [DOXORUBICIN] | < 0.046

System: MCF7
Test: Anticancer activity against human MCF7 cells assessed as cell growth inhibition measured after 48 hrs by sulforhodamine B assay
Type: functional
Conditions: 48 h

Row | SMILES | GI50 [µM]
47 | CCOC(=O)c1nn(-c2ccc(Cl)cc2)c(-c2ccc(C)cc2)c1CNC(C)(C)C | 141

Same assay, conditions: Homo sapiens, MCF7, 48 h

Row | SMILES | GI50 [µM]
48 | CC(C)(C)NCc1c(C(=O)O)nn(-c2ccccc2)c1-c1ccc(F)cc1 | > 681
49 | CC(C)(C)NCc1c(C(=O)O)nn(-c2ccccc2)c1-c1ccc(Br)cc1 | 293
50 | CC(C)(C)NCc1c(C(=O)O)nn(-c2ccc(Cl)cc2)c1-c1ccc(Cl)cc1 | 246
51 | COc1ccc(-c2c(CNC(C)(C)C)c(C(=O)O)nn2-c2ccc(Cl)cc2)cc1 | 220
52 | CCOC(=O)c1nn(-c2ccc(Cl)cc2)c(-c2ccc(F)cc2)c1CNC(C)(C)C | > 582
53 | CCOC(=O)c1nn(-c2ccccc2)c(-c2ccc(F)cc2)c1CNC(C)(C)C | 306
54 | COc1cccc2c1C(=O)c1c(O)c3c(c(O)c1C2=O)C[C@@](O)(C(=O)CO)C[C@@H]3O[C@H]1C[C@H](N)[C@H](O)[C@H](C)O1 [DOXORUBICIN] | < 0.046

System: K562
Test: Anticancer activity against human K562 cells assessed as cell growth inhibition measured after 48 hrs by sulforhodamine B assay
Type: functional
Conditions: 48 h

Row | SMILES | GI50 [µM]
55 | CCOC(=O)c1nn(-c2ccc(Cl)cc2)c(-c2ccc(F)cc2)c1CNC(C)(C)C | 78.5
56 | CCOC(=O)c1nn(-c2ccccc2)c(-c2ccc(F)cc2)c1CNC(C)(C)C | 75.7
57 | CCOC(=O)c1nn(-c2ccc(Cl)cc2)c(-c2ccc(C)cc2)c1CNC(C)(C)C | 106

Same assay, conditions: Homo sapiens, K562, 48 h

Row | SMILES | GI50 [µM]
58 | CC(C)(C)NCc1c(C(=O)O)nn(-c2ccccc2)c1-c1ccc(F)cc1 | > 681
59 | CC(C)(C)NCc1c(C(=O)O)nn(-c2ccccc2)c1-c1ccc(Br)cc1 | > 585
60 | CC(C)(C)NCc1c(C(=O)O)nn(-c2ccc(Cl)cc2)c1-c1ccc(Cl)cc1 | 290
61 | COc1ccc(-c2c(CNC(C)(C)C)c(C(=O)O)nn2-c2ccc(Cl)cc2)cc1 | > 605
62 | COc1cccc2c1C(=O)c1c(O)c3c(c(O)c1C2=O)C[C@@](O)(C(=O)CO)C[C@@H]3O[C@H]1C[C@H](N)[C@H](O)[C@H](C)O1 [DOXORUBICIN] | 0.06

System: PC-3
Test: Anticancer activity against human PC-3 cells assessed as cell growth inhibition measured after 48 hrs by sulforhodamine B assay
Type: functional
Conditions: 48 h

Row | SMILES | GI50 [µM]
63 | CCOC(=O)c1nn(-c2ccc(Cl)cc2)c(-c2ccc(C)cc2)c1CNC(C)(C)C | 249

Same assay, conditions: Homo sapiens, PC-3, 48 h

Row | SMILES | GI50 [µM]
64 | CC(C)(C)NCc1c(C(=O)O)nn(-c2ccccc2)c1-c1ccc(F)cc1 | > 681
65 | CC(C)(C)NCc1c(C(=O)O)nn(-c2ccccc2)c1-c1ccc(Br)cc1 | > 585
66 | CC(C)(C)NCc1c(C(=O)O)nn(-c2ccc(Cl)cc2)c1-c1ccc(Cl)cc1 | > 599
67 | COc1ccc(-c2c(CNC(C)(C)C)c(C(=O)O)nn2-c2ccc(Cl)cc2)cc1 | > 605
68 | CCOC(=O)c1nn(-c2ccc(Cl)cc2)c(-c2ccc(F)cc2)c1CNC(C)(C)C | 405
69 | CCOC(=O)c1nn(-c2ccccc2)c(-c2ccc(F)cc2)c1CNC(C)(C)C | 69.3
70 | COc1cccc2c1C(=O)c1c(O)c3c(c(O)c1C2=O)C[C@@](O)(C(=O)CO)C[C@@H]3O[C@H]1C[C@H](N)[C@H](O)[C@H](C)O1 [DOXORUBICIN] | 0.42
